From US20230130766A1 (SALK INSTITUTE FOR BIOLOGICAL STUDIES, priority 2020, published 2023)

Key:
Assay type in all cases: in vivo, nude mice
[1] = test system: NCI-H358 cells; experiment: H358 xenografts treated with ULK inhibitor alone; details: 30 mg/kg twice daily
Protocol: NCI-H358 cells (5M cells) were injected bilaterally into the flanks of twenty nude mice to create tumor xenografts in order to assess the efficacy of Compound 14 in treating non-small cell lung cancer tumors. After 32 days of letting tumor cells proliferate (at which point tumors had reach ˜200 mm^3 in volume), one cohort of ten mice was administered 30 mg/kg twice daily doses of Compound 14, and the remaining mice administered vehicle alone. Treatment and monitoring was continued until day 72 post inoculation of tumor cells.

[2] = test system: NCI-H460 cells; experiment: NCI-H460 xenografts treated with ULK inhibitor alone; details: 30 mg/kg twice daily
Protocol: NCI-H460 cells (2.5M cells) were injected bilaterally into the flanks of twenty-four nude mice to create tumor xenografts in order to assess the efficacy of Compound 14 in treating non-small cell lung cancer tumors. After 14 days of letting tumor cells proliferate (at which point tumors had reach ˜200 mm^3 in volume), one cohort of twelve mice was administered 30 mg/kg twice daily doses of Compound 14, and the remaining mice administered vehicle alone. Treatment and monitoring were continued until day 23 post inoculation of tumor cells (9 days of treatment).

[3] = test system: A549 cells; experiment: A549 xenografts, ULK inhibitor alone and in combination with carboplatin
Protocol: (§1) A549 cells (5M cells) were injected bilaterally into the flanks of thirty-six nude mice to create tumor xenografts in order to assess the efficacy of Compound 14 in treating non-small cell lung cancer tumors both alone and in combination with carboplatin, the current standard of care therapy for non-small cell lung cancer. After 11 days of letting tumor cells proliferate (at which point tumors were ˜50 mm^3 in volume), administration of carboplatin, Compound 14, or combinations began. One cohort of six mice received 20 mg/kg twice daily doses of Compound 14 alone, one cohort of six mice received 30 mg/kg twice daily doses of Compound 14 alone, one cohort of six mice received 25 mg/kg doses of carboplatin every three days, one cohort of six mice received 20 mg/kg twice daily doses of Compound 14 in conjunction with 25 mg/kg doses of carboplatin every three days, one cohort of six mice received 30 mg/kg twice daily doses of Compound 14 in conjunction with 25 mg/kg doses of carboplatin every three days, and the remaining six mice were treated with vehicle. Treatment and monitoring was continued until day 53 post inoculation of tumor cells (42 days of treatment).

[4] = test system: phosphorylated ATG13 (P-ATG); experiment: Western blot analysis of A549 xenograft tumors; details: A549 xenograft tumors at end of study
Protocol: as §1
At the end of the study, Western blot analysis of the tumors from vehicle and Compound 14 monotherapy cohorts was analyzed.

[5] = test system: A549 cells; experiment: A549 xenograft large tumors, ULK inhibitor alone versus carboplatin; details: A549 large tumors; each Compound 14 cohort: 20 mg/kg twice daily, 30 mg/kg twice daily, 40 mg/kg once daily; 32 days
Protocol: A549 cells (5M cells) were injected bilaterally into the flanks of forty-six nude mice to create tumor xenografts in order to assess the efficacy of Compound 14 in treating larger non-small cell lung cancer tumors compared to carboplatin, the current standard of care therapy for non-small cell lung cancer. After 40 days of letting tumor cells proliferate (at which point tumors were over 200 mm^3 in volume), administration of carboplatin or Compound 14 was initiated. One cohort of twelve mice received 20 mg/kg twice daily doses of Compound 14, one cohort of ten mice received 30 mg/kg twice daily doses of Compound 14, one cohort of seven mice received 25 mg/kg doses of carboplatin every three days, one cohort of seven mice received 40 mg/kg once daily doses of Compound 14, and the remaining ten mice were treated with vehicle. Treatment and monitoring was continued until day 72 post inoculation of tumor cells (32 days of treatment).

[6] = test system: MIA PaCa-2 cells; experiment: MIA PaCa-2 xenografts, ULK inhibitor alone versus gemcitabine; details: day 42, Compound 14 20 mg/kg twice daily, gemcitabine dose not given
Protocol: (§2) MIA PaCa-2 cells were injected bilaterally into the flanks of nude mice to create tumor xenografts in order to assess the efficacy of Compound 14 in treating pancreatic cancer tumors compared to gemcitabine, a current standard of care therapy for pancreatic cancer. After 3 days of letting tumor cells proliferate (at which point tumors were ˜100 mm^3 in volume), administration of gemcitabine or Compound 14 was initiated. One cohort received 20 mg/kg twice daily doses of Compound 14, one cohort received gemcitabine, and the remaining cohort was treated with vehicle. Treatment and monitoring were continued until day 42 post inoculation of tumor cells (30 days of treatment).

[7] = test system: ULK1, phosphorylated ATG13; experiment: Western blot analysis of MIA PaCa-2 xenograft tumors; details: MIA PaCa-2 xenograft tumors at end of experiment, 20 mg/kg twice daily
Protocol: as §2

[8] = test system: MIA PaCa-2 cells; experiment: MIA PaCa-2 xenografts, ULK inhibitor alone and in combination with trametinib; details: day 25
Protocol: MIA PaCa-2 cells were injected bilaterally into the flanks nude mice to create tumor xenografts in order to assess the efficacy of Compound 14 in treating pancreatic cancer tumors alone and in combination with trametinib, an MEK inhibitor and current standard of care therapy for the treatment of pancreatic cancer. After letting tumor cells proliferate to the point where tumors had reach ˜300 mm^3 in volume, one cohort of mice was administered 20 mg/kg daily doses of Compound 14, one cohort of mice was administered 30 mg/kg daily doses of Compound 14, one cohort of mice was administered 1 mg/kg daily doses of trametinib, one cohort of mice was administered 1 mg/kg daily doses of trametinib in combination with 20 mg/kg daily doses of Compound 14, one cohort of mice was administered 1 mg/kg daily doses of trametinib in combination with 30 mg/kg daily doses of Compound 14, and the remaining cohort of mice was administered vehicle alone. Treatment and monitoring were continued for 25 days.

Question: With CNC(=O)c1ccccc1Nc1nc(Nc2cc(OC)c(OC)c(OC)c2)ncc1Br [Compound 14] as the compound, how does the “% growth of tumor cells relative to the start of treatment” value [1] read?
Answer: clear reduction in average tumor size

Question: And the average tumor volume ([1]; day 32 to day 72 post inoculation)?
Answer: no growth during the monitoring period, and even a decrease in tumor size

Question: And the “average tumor mass at the end of the study” value (from here on “average tumor mass at the end”) ([1]; day 35 post treatment)?
Answer: substantially smaller overall tumor burden compared to control

Question: What about the “% growth of tumor relative to the start of treatment” value [2] of the same compound?
Answer: clear reduction in tumor growth

Question: And the average tumor volume ([2]; 9 days of treatment)?
Answer: substantially reduced growth during the monitoring period compared to the control

Question: And the tumor growth ([2]; after 3 days of treatment)?
Answer: tumor growth had virtually stopped

Question: And the “less tumor mass than vehicle treated mice” value ([2]; day 9 post treatment)?
Answer: ~50%

Question: And the “final tumor average volume” value ([3]; 20 mg/kg twice daily alone, day 53)?
Answer: ~150 mm^3

Question: And the “average tumor mass at the end” value ([3]; 30 mg/kg twice daily alone, 42 days of treatment)?
Answer: smallest tumors

Question: And the “tumor volume at the end of the study” value ([3]; 30 mg/kg twice daily alone, day 53)?
Answer: ~50 mm^3

Question: And the “average tumor mass at the end” value ([3]; both combinations: Compound 14 20 or 30 mg/kg twice daily with carboplatin 25 mg/kg every three days, 42 days)?
Answer: smallest tumors

Question: And the “tumor volume at the end of the study” value ([3]; both combinations: Compound 14 20 or 30 mg/kg twice daily with carboplatin 25 mg/kg every three days, day 53)?
Answer: ~50 mm^3

Question: What about the “tumor growth compared to the control” value ([3]; monotherapy: carboplatin 25 mg/kg every three days, Compound 14 20 mg/kg twice daily) of the same compound?
Answer: markedly reduced growth compared to the control

Question: What about the “phosphorylated ATG13 in tumors (Western blot)” value ([4]; 20 mg/kg twice daily monotherapy) of the same compound?
Answer: some residual phosphorylated ATG13

Question: And the “phosphorylated ATG13 in tumors (Western blot)” value ([4]; 30 mg/kg twice daily monotherapy)?
Answer: almost total elimination of phosphorylated ATG13

Question: And the “tumor growth compared with the start of treatment” value [5]?
Answer: little to no growth, or even a decrease in tumor volume

Question: And the final tumor volume [6]?
Answer: ~800 mm^3

Question: What about the “ULK1 levels in tumor (Western blot)” value [7] of the same compound?
Answer: reduced ULK1 levels compared to vehicle treated

Question: What about the “levels of phosphorylated ATG13 in tumor (Western blot)” value [7] of the same compound?
Answer: reduced levels of phosphorylated ATG13

Question: And the “total levels of ATG13 in tumor (Western blot)” value ([7]; versus vehicle)?
Answer: comparable

Question: And the “final tumor size (average)” value ([8]; 20 mg/kg daily alone)?
Answer: ~1000 mm^3

Question: And the “average tumor mass at the end” value ([8]; both combinations: trametinib 1 mg/kg daily with Compound 14 20 or 30 mg/kg daily)?
Answer: substantially less tumor mass compared to control and each mono-therapy
